Measured values from PubChem BioAssay (NCI).
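Five compound concentrations were applied to cells in 96-well plates for 48 hours; endpoints were derived by simple linear interpolation of the resulting dose-response curve. The concentration for 50% growth inhibition is given as GI50. TGI denotes the concentration required for complete inhibition of growth.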

Columns and labels:
Assay in all cases: NCI-60 cell line screen, 48 h
[1] = system: RXF 393 renal
[2] = system: ACHN renal
[3] = system: OVCAR-4 ovarian
[4] = system: SNB-75 CNS
[5] = system: HOP-92 NSCLC
[6] = system: PC-3 prostate
[7] = system: SN12C renal
[8] = system: CAKI-1 renal
[9] = system: RPMI-8226 leukemia
[10] = system: TK-10 renal
[11] = system: HL-60(TB) leukemia
[12] = system: UO-31 renal
[13] = system: MOLT-4 leukemia
[14] = system: COLO 205 colon
[15] = system: UACC-62 melanoma
[16] = system: SK-MEL-2 melanoma
[17] = system: MALME-3M melanoma
[18] = system: UACC-257 melanoma
[19] = system: SF-268 CNS
[20] = system: NCI-H23 lung
[21] = system: M14 melanoma
[22] = system: SF-539 CNS
[23] = system: SF-295 CNS
[24] = system: SK-OV-3 ovarian
[25] = system: U251 CNS
[26] = system: MCF7 breast
[27] = system: HCT-15 colon
[28] = system: OVCAR-5 ovarian
[29] = system: EKVX NSCLC
[30] = system: A549 NSCLC
[31] = system: CCRF-CEM leukemia
[32] = system: K-562 leukemia
[33] = system: SK-MEL-5 melanoma
[34] = system: A498 renal
[35] = system: 786-0 renal
[36] = system: SK-MEL-28 melanoma
[37] = system: IGROV1 ovarian
[38] = system: HT29 colon
[39] = system: SNB-19 CNS
[40] = system: HCC-2998 colon
[41] = system: DU-145 prostate
[42] = system: KM12 colon
[43] = system: NCI-H522 lung
[44] = system: HOP-62 NSCLC
[45] = system: NCI-H460 lung
[46] = system: HS 578T breast
[47] = system: HCT-116 colon
[48] = system: T-47D breast
[49] = system: SW-620 colon
[50] = system: MDA-MB-231 breast
[51] = system: MDA-MB-435
[52] = system: OVCAR-8 ovarian
[53] = system: NCI/ADR-RES ovarian
[54] = system: NCI-H226 lung
[55] = system: SR leukemia

Q: What does the source list for N#Cc1cccc(NC(=O)c2cc(-c3ccc(F)cc3F)ccc2O)c1?
A: GI50 [1]: 2.25 µM; TGI [1]: 6.6 µM; GI50 [2]: 2.65 µM; TGI [2]: 10.1 µM; GI50 [3]: 0.899 µM; TGI [3]: 14.2 µM; GI50 [4]: 1.29 µM; TGI [4]: 3.88 µM; GI50 [5]: 0.338 µM; TGI [5]: 1.93 µM; GI50 [6]: 2.89 µM; TGI [6]: 17.9 µM; GI50 [7]: 1.44 µM; TGI [7]: 6.46 µM; GI50 [8]: 1.31 µM; TGI [8]: 4.74 µM; GI50 [9]: 0.562 µM; TGI [9]: 3.17 µM; GI50 [10]: 3.49 µM; TGI [10]: 15.7 µM; GI50 [11]: 1.8 µM; TGI [11]: 5.27 µM; GI50 [12]: 1.82 µM; TGI [12]: 9.03 µM; GI50 [13]: 2.55 µM; TGI [13]: 8.6 µM; GI50 [14]: 11.5 µM; TGI [14]: 25.1 µM; GI50 [15]: 0.522 µM; TGI [15]: 2.7 µM; GI50 [16]: 0.768 µM; TGI [16]: 3.85 µM; GI50 [17]: 1.01 µM; TGI [17]: 4 µM; GI50 [18]: 0.893 µM; TGI [18]: 5.32 µM; GI50 [19]: 2.38 µM; TGI [19]: 20.7 µM; GI50 [20]: 1.49 µM; TGI [20]: 6.23 µM; GI50 [21]: 2.25 µM; TGI [21]: 8.89 µM; GI50 [22]: 2.54 µM; GI50 [23]: 1.96 µM; TGI [23]: 4.44 µM; GI50 [24]: 2.35 µM; TGI [24]: 8.88 µM; GI50 [25]: 2.56 µM; TGI [25]: 25.5 µM; GI50 [26]: 1.87 µM; TGI [26]: 10.7 µM; GI50 [27]: 1.9 µM; TGI [27]: 6.93 µM; GI50 [28]: 3.39 µM; TGI [28]: 30.2 µM; GI50 [29]: 2.68 µM; TGI [29]: 9.32 µM; GI50 [30]: 3.52 µM; TGI [30]: > 100 µM; GI50 [31]: 3.25 µM; TGI [31]: 19.3 µM; GI50 [32]: 1.51 µM; TGI [32]: > 100 µM; GI50 [33]: 0.507 µM; TGI [33]: 1.94 µM; GI50 [34]: 0.374 µM; TGI [34]: 2.12 µM; GI50 [35]: 3.06 µM; TGI [35]: 10.7 µM; GI50 [36]: 1.38 µM; GI50 [37]: 2.6 µM; TGI [37]: > 100 µM; GI50 [38]: 5.71 µM; TGI [38]: > 100 µM; GI50 [39]: 2.37 µM; TGI [39]: 14.3 µM; GI50 [40]: 3.22 µM; TGI [40]: 12.4 µM; GI50 [41]: 2.63 µM; TGI [41]: > 100 µM; GI50 [42]: 2.72 µM; TGI [42]: 8.24 µM; GI50 [43]: 0.642 µM; TGI [43]: 10.9 µM; GI50 [44]: 2.39 µM; TGI [44]: 7.96 µM; GI50 [45]: 1.42 µM; TGI [45]: 13.3 µM; GI50 [46]: 2.02 µM; TGI [46]: 7.21 µM; GI50 [47]: 1.89 µM; TGI [47]: 8.91 µM; GI50 [48]: 0.496 µM; TGI [48]: 6.57 µM; GI50 [49]: 2.99 µM; TGI [49]: 17.1 µM; GI50 [50]: 2.12 µM; TGI [50]: 5.93 µM; GI50 [51]: 1.37 µM; TGI [51]: 6.32 µM; GI50 [52]: 2.88 µM; TGI [52]: > 100 µM; GI50 [53]: 2.11 µM; TGI [53]: 9.92 µM; GI50 [54]: 1.86 µM; TGI [54]: 7.36 µM; GI50 [55]: 2.91 µM; TGI [55]: 23.2 µM
